Measurements taken from the NIST ThermoML archive (doi:10.1021/je900733j).
Numbers after ± are expanded uncertainties.

What was measured:
[1] = xn = mol fraction of the nth substance listed; details: 101 kPa, Liquid
[2] = 101 kPa, Liquid

## CCCCn1cc[n+](C)c1.[Cl-] [1-butyl-3-methylimidazolium chloride] + CN(C)C=O
[1]; 293.15 K, x1 = 0.0332
  mass density: 961.92 ± 0.26 kg/m3
[1]; 293.15 K, x1 = 0.0835
  mass density: 978 ± 0.31 kg/m3
[1]; 293.15 K, x1 = 0.1303
  mass density: 990.54 ± 0.37 kg/m3
[1]; 293.15 K, x1 = 0.1822
  mass density: 1002.71 ± 0.48 kg/m3
[1]; 293.15 K, x1 = 0.2289
  mass density: 1012.04 ± 0.62 kg/m3
[1]; 293.15 K, x1 = 0.3069
  mass density: 1025.51 ± 0.91 kg/m3
[1]; 293.15 K, x1 = 0.3879
  mass density: 1037.1 ± 1.3 kg/m3
[1]; 293.15 K, x1 = 0.4488
  mass density: 1044.53 ± 1.6 kg/m3
[1]; 298.15 K, x1 = 0.0332
  mass density: 957.33 ± 0.27 kg/m3
[1]; 298.15 K, x1 = 0.0835
  mass density: 973.63 ± 0.31 kg/m3
[1]; 298.15 K, x1 = 0.1303
  mass density: 986.33 ± 0.38 kg/m3
[1]; 298.15 K, x1 = 0.1822
  mass density: 998.67 ± 0.47 kg/m3
[1]; 298.15 K, x1 = 0.2289
  mass density: 1008.12 ± 0.61 kg/m3
[1]; 298.15 K, x1 = 0.3069
  mass density: 1021.78 ± 0.9 kg/m3
[1]; 298.15 K, x1 = 0.3879
  mass density: 1033.54 ± 1.3 kg/m3
[1]; 298.15 K, x1 = 0.4488
  mass density: 1041.06 ± 1.6 kg/m3
[1]; 303.15 K, x1 = 0.0332
  mass density: 952.73 ± 0.28 kg/m3
[1]; 303.15 K, x1 = 0.0835
  mass density: 969.25 ± 0.32 kg/m3
[1]; 303.15 K, x1 = 0.1303
  mass density: 982.13 ± 0.38 kg/m3
[1]; 303.15 K, x1 = 0.1822
  mass density: 994.62 ± 0.48 kg/m3
[1]; 303.15 K, x1 = 0.2289
  mass density: 1004.21 ± 0.6 kg/m3
[1]; 303.15 K, x1 = 0.3069
  mass density: 1018.05 ± 0.89 kg/m3
[1]; 303.15 K, x1 = 0.3879
  mass density: 1029.98 ± 1.3 kg/m3
[1]; 303.15 K, x1 = 0.4488
  mass density: 1037.61 ± 1.6 kg/m3
[1]; 308.15 K, x1 = 0.0332
  mass density: 948.12 ± 0.28 kg/m3
[1]; 308.15 K, x1 = 0.0835
  mass density: 964.87 ± 0.32 kg/m3
[1]; 308.15 K, x1 = 0.1303
  mass density: 977.91 ± 0.39 kg/m3
[1]; 308.15 K, x1 = 0.1822
  mass density: 990.58 ± 0.48 kg/m3
[1]; 308.15 K, x1 = 0.2289
  mass density: 1000.3 ± 0.59 kg/m3
[1]; 308.15 K, x1 = 0.3069
  mass density: 1014.34 ± 0.88 kg/m3
[1]; 308.15 K, x1 = 0.3879
  mass density: 1026.42 ± 1.2 kg/m3
[1]; 308.15 K, x1 = 0.4488
  mass density: 1034.18 ± 1.6 kg/m3
[1]; 313.15 K, x1 = 0.0332
  mass density: 943.52 ± 0.29 kg/m3
[1]; 313.15 K, x1 = 0.0835
  mass density: 960.48 ± 0.33 kg/m3
[1]; 313.15 K, x1 = 0.1303
  mass density: 973.71 ± 0.39 kg/m3
[1]; 313.15 K, x1 = 0.1822
  mass density: 986.54 ± 0.49 kg/m3
[1]; 313.15 K, x1 = 0.2289
  mass density: 996.4 ± 0.6 kg/m3
[1]; 313.15 K, x1 = 0.3069
  mass density: 1010.63 ± 0.87 kg/m3
[1]; 313.15 K, x1 = 0.3879
  mass density: 1022.89 ± 1.2 kg/m3
[1]; 313.15 K, x1 = 0.4488
  mass density: 1030.77 ± 1.6 kg/m3
[1]; 318.15 K, x1 = 0.0332
  mass density: 938.89 ± 0.3 kg/m3
[1]; 318.15 K, x1 = 0.0835
  mass density: 956.09 ± 0.34 kg/m3
[1]; 318.15 K, x1 = 0.1303
  mass density: 969.5 ± 0.4 kg/m3
[1]; 318.15 K, x1 = 0.1822
  mass density: 982.51 ± 0.49 kg/m3
[1]; 318.15 K, x1 = 0.2289
  mass density: 992.5 ± 0.6 kg/m3
[1]; 318.15 K, x1 = 0.3069
  mass density: 1006.94 ± 0.86 kg/m3
[1]; 318.15 K, x1 = 0.3879
  mass density: 1019.36 ± 1.2 kg/m3
[1]; 318.15 K, x1 = 0.4488
  mass density: 1027.36 ± 1.5 kg/m3

## CO [methanol]
[2]; 293.15 K
  mass density: 791.3 ± 0.48 kg/m3
[2]; 298.15 K
  mass density: 786.58 ± 0.49 kg/m3
[2]; 303.15 K
  mass density: 781.86 ± 0.5 kg/m3
[2]; 308.15 K
  mass density: 777.11 ± 0.5 kg/m3
[2]; 313.15 K
  mass density: 772.33 ± 0.51 kg/m3
[2]; 318.15 K
  mass density: 767.52 ± 0.52 kg/m3

## CCCCn1cc[n+](C)c1.[Cl-] [1-butyl-3-methylimidazolium chloride] + O
[1]; 293.15 K, x1 = 0.0121
  mass density: 1007.06 ± 0.2 kg/m3
[1]; 293.15 K, x1 = 0.0381
  mass density: 1024.73 ± 0.26 kg/m3
[1]; 293.15 K, x1 = 0.0819
  mass density: 1046.21 ± 0.36 kg/m3
[1]; 293.15 K, x1 = 0.1109
  mass density: 1055.73 ± 0.43 kg/m3
[1]; 293.15 K, x1 = 0.1399
  mass density: 1062.54 ± 0.51 kg/m3
[1]; 293.15 K, x1 = 0.2489
  mass density: 1076.98 ± 0.85 kg/m3
[1]; 293.15 K, x1 = 0.2977
  mass density: 1080.14 ± 1 kg/m3
[1]; 293.15 K, x1 = 0.4083
  mass density: 1084.32 ± 1.6 kg/m3
[1]; 298.15 K, x1 = 0.0121
  mass density: 1005.53 ± 0.19 kg/m3
[1]; 298.15 K, x1 = 0.0381
  mass density: 1022.46 ± 0.25 kg/m3
[1]; 298.15 K, x1 = 0.0819
  mass density: 1043.25 ± 0.36 kg/m3
[1]; 298.15 K, x1 = 0.1109
  mass density: 1052.62 ± 0.43 kg/m3
[1]; 298.15 K, x1 = 0.1399
  mass density: 1059.39 ± 0.5 kg/m3
[1]; 298.15 K, x1 = 0.2489
  mass density: 1073.95 ± 0.85 kg/m3
[1]; 298.15 K, x1 = 0.2977
  mass density: 1077.15 ± 1 kg/m3
[1]; 298.15 K, x1 = 0.4083
  mass density: 1081.43 ± 1.6 kg/m3
[1]; 303.15 K, x1 = 0.0121
  mass density: 1003.8 ± 0.19 kg/m3
[1]; 303.15 K, x1 = 0.0381
  mass density: 1020.07 ± 0.25 kg/m3
[1]; 303.15 K, x1 = 0.0819
  mass density: 1040.24 ± 0.35 kg/m3
[1]; 303.15 K, x1 = 0.1109
  mass density: 1049.46 ± 0.42 kg/m3
[1]; 303.15 K, x1 = 0.1399
  mass density: 1056.2 ± 0.5 kg/m3
[1]; 303.15 K, x1 = 0.2489
  mass density: 1070.89 ± 0.84 kg/m3
[1]; 303.15 K, x1 = 0.2977
  mass density: 1074.16 ± 1 kg/m3
[1]; 303.15 K, x1 = 0.4083
  mass density: 1078.53 ± 1.5 kg/m3
[1]; 308.15 K, x1 = 0.0121
  mass density: 1001.89 ± 0.19 kg/m3
[1]; 308.15 K, x1 = 0.0381
  mass density: 1017.57 ± 0.24 kg/m3
[1]; 308.15 K, x1 = 0.0819
  mass density: 1037.17 ± 0.34 kg/m3
[1]; 308.15 K, x1 = 0.1109
  mass density: 1046.28 ± 0.41 kg/m3
[1]; 308.15 K, x1 = 0.1399
  mass density: 1052.99 ± 0.49 kg/m3
[1]; 308.15 K, x1 = 0.2489
  mass density: 1067.82 ± 0.83 kg/m3
[1]; 308.15 K, x1 = 0.2977
  mass density: 1071.15 ± 1 kg/m3
[1]; 308.15 K, x1 = 0.4083
  mass density: 1075.63 ± 1.5 kg/m3
[1]; 313.15 K, x1 = 0.0121
  mass density: 999.81 ± 0.19 kg/m3
[1]; 313.15 K, x1 = 0.0381
  mass density: 1014.95 ± 0.24 kg/m3
[1]; 313.15 K, x1 = 0.0819
  mass density: 1034.06 ± 0.34 kg/m3
[1]; 313.15 K, x1 = 0.1109
  mass density: 1043.06 ± 0.41 kg/m3
[1]; 313.15 K, x1 = 0.1399
  mass density: 1049.76 ± 0.48 kg/m3
[1]; 313.15 K, x1 = 0.2489
  mass density: 1064.72 ± 0.82 kg/m3
[1]; 313.15 K, x1 = 0.2977
  mass density: 1068.14 ± 1 kg/m3
[1]; 313.15 K, x1 = 0.4083
  mass density: 1072.73 ± 1.5 kg/m3
[1]; 318.15 K, x1 = 0.0121
  mass density: 997.57 ± 0.19 kg/m3
[1]; 318.15 K, x1 = 0.0381
  mass density: 1012.24 ± 0.24 kg/m3
[1]; 318.15 K, x1 = 0.0819
  mass density: 1030.89 ± 0.33 kg/m3
[1]; 318.15 K, x1 = 0.1109
  mass density: 1039.81 ± 0.4 kg/m3
[1]; 318.15 K, x1 = 0.1399
  mass density: 1046.48 ± 0.48 kg/m3
[1]; 318.15 K, x1 = 0.2489
  mass density: 1061.63 ± 0.81 kg/m3
[1]; 318.15 K, x1 = 0.2977
  mass density: 1065.09 ± 1 kg/m3
[1]; 318.15 K, x1 = 0.4083
  mass density: 1069.82 ± 1.5 kg/m3

## CN(C)C=O [dimethylformamide] + CCCCn1cc[n+](C)c1.[Cl-]
[1]; 293.15 K, x2 = 0
  mass density: 948.63 ± 0.25 kg/m3
[1]; 298.15 K, x2 = 0
  mass density: 943.86 ± 0.26 kg/m3
[1]; 303.15 K, x2 = 0
  mass density: 939.08 ± 0.27 kg/m3
[1]; 308.15 K, x2 = 0
  mass density: 934.29 ± 0.27 kg/m3
[1]; 313.15 K, x2 = 0
  mass density: 929.48 ± 0.28 kg/m3
[1]; 318.15 K, x2 = 0
  mass density: 924.68 ± 0.29 kg/m3

## CO [methanol] + CCCCn1cc[n+](C)c1.[Cl-]
[1]; 293.15 K, x2 = 0
  mass density: 791.3 ± 0.48 kg/m3
[1]; 298.15 K, x2 = 0
  mass density: 786.58 ± 0.49 kg/m3
[1]; 303.15 K, x2 = 0
  mass density: 781.86 ± 0.5 kg/m3
[1]; 308.15 K, x2 = 0
  mass density: 777.11 ± 0.5 kg/m3
[1]; 313.15 K, x2 = 0
  mass density: 772.33 ± 0.51 kg/m3
[1]; 318.15 K, x2 = 0
  mass density: 767.52 ± 0.52 kg/m3

## CC#N [acetonitrile] + CCCCn1cc[n+](C)c1.[Cl-]
[1]; 293.15 K, x2 = 0
  mass density: 782.04 ± 0.5 kg/m3
[1]; 298.15 K, x2 = 0
  mass density: 776.64 ± 0.51 kg/m3
[1]; 303.15 K, x2 = 0
  mass density: 771.21 ± 0.51 kg/m3
[1]; 308.15 K, x2 = 0
  mass density: 765.75 ± 0.52 kg/m3
[1]; 313.15 K, x2 = 0
  mass density: 760.25 ± 0.53 kg/m3
[1]; 318.15 K, x2 = 0
  mass density: 754.73 ± 0.54 kg/m3

## CN(C)C=O [dimethylformamide]
[2]; 293.15 K
  mass density: 948.63 ± 0.25 kg/m3
[2]; 298.15 K
  mass density: 943.86 ± 0.26 kg/m3
[2]; 303.15 K
  mass density: 939.08 ± 0.27 kg/m3
[2]; 308.15 K
  mass density: 934.29 ± 0.27 kg/m3
[2]; 313.15 K
  mass density: 929.48 ± 0.28 kg/m3
[2]; 318.15 K
  mass density: 924.68 ± 0.29 kg/m3
